# From PubChem BioAssay (NCI)
# Values joined by “and” are separate entries in the source; they are usually repeats but may differ in a detail not shown here. Equal entries are not always repeated.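 Assay format: 96-well plates, 48-hour exposure. GI50 is the concentration that inhibits growth by half. TGI: concentration producing complete growth inhibition.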
# What was measured:
# Assay in all cases: NCI-60 cell line screen, 48 h
# EKVX NSCLC = system: EKVX NSCLC
# HS 578T breast = system: HS 578T breast
# DU-145 prostate = system: DU-145 prostate
# OVCAR-4 ovarian = system: OVCAR-4 ovarian
# MALME-3M melanoma = system: MALME-3M melanoma
# SW-620 colon = system: SW-620 colon
# UO-31 renal = system: UO-31 renal
# HL-60(TB) leukemia = system: HL-60(TB) leukemia
# K-562 leukemia = system: K-562 leukemia
# SF-295 CNS = system: SF-295 CNS
# SK-OV-3 ovarian = system: SK-OV-3 ovarian
# ACHN renal = system: ACHN renal
# OVCAR-3 ovarian = system: OVCAR-3 ovarian
# NCI-H23 lung = system: NCI-H23 lung
# T-47D breast = system: T-47D breast
# A549 NSCLC = system: A549 NSCLC
# BT-549 breast = system: BT-549 breast
# A498 renal = system: A498 renal
SMILES,TGI (EKVX NSCLC) [µM],TGI (HS 578T breast) [µM],TGI (DU-145 prostate) [µM],TGI (OVCAR-4 ovarian) [µM],TGI (MALME-3M melanoma) [µM],TGI (SW-620 colon) [µM],TGI (UO-31 renal) [µM],TGI (HL-60(TB) leukemia) [µM],TGI (K-562 leukemia) [µM],TGI (SF-295 CNS) [µM],TGI (SK-OV-3 ovarian) [µM],TGI (ACHN renal) [µM],TGI (OVCAR-3 ovarian) [µM],TGI (NCI-H23 lung) [µM],TGI (T-47D breast) [µM],TGI (A549 NSCLC) [µM],TGI (BT-549 breast) [µM],TGI (A498 renal) [µM],GI50 (HL-60(TB) leukemia),GI50 (ACHN renal)
O=S1(=O)OCCOS(=O)(=O)C1(F)Br,> 100,> 100,> 100,> 100,> 100,> 100,> 100,> 100,> 100,> 100,> 100,> 100,> 100,> 100,> 100,> 100,–,–,–,–
CCC(C=O)P1(=O)OC(C)(C)CN1C(C)(C)C (stereo not drawn),> 100,–,> 100,> 100,> 100,> 100,> 100,–,> 100,> 100,> 100,> 100,81.3,> 100,> 100,> 100,> 100,> 100,–,–
CCOC(=O)C1C(c2ccc3c(c2)OCO3)c2c([nH][nH]c2=O)CC1(C)O (stereo not drawn),> 100,> 100,> 100,> 100,> 100,> 100,> 100,> 100,–,> 100,–,> 100,> 100,> 100,> 100,> 100,–,> 100,–,–
CC(=O)c1ccc2c(c1)CC1(C2)Cc2cc3c(cc2C1=O)CCC3 (stereo not drawn),64.8,89.5,61.9,48,39.3,> 100,63.5,35.8,> 100,49,96.3,58.2,40.6,89.1,88.5,59.5,–,51.7,–,–
O=[N+]([O-])c1cccc2nnccc12,> 100,> 100,> 100,–,26.9,> 100,95.4,14.4,> 100,> 100,> 100,30,–,> 100,> 100,> 100,> 100,–,–,–
COc1c(F)c(F)c(/C(O)=C\c2nc3ccccc3[nH]c2=O)c(F)c1F,> 10,–,> 10,4.94,> 10,> 10,–,> 10,> 10,> 10,> 10,–,–,> 10,> 10,> 10,–,–,–,–
CCN(CC)CC1CCCCN1CC(=O)N1c2ccccc2C(=O)Nc2cccnc21 (stereo not drawn),> 100,> 100,> 100,> 100,> 100,> 100,4.96,35,–,> 100,> 100,> 100,> 100,> 100,> 100,35.4,–,> 100,–,–
CC1(C)C=Cc2c(cc(O)c3c(=O)c4cc(Cl)ccc4[nH]c23)O1,> 10,–,–,> 10,7.5,> 10,5.91,6.6,> 10,8.25,> 10,> 10,3.01,6.54,> 10,> 10,8.06,–,–,–
CC1CC(C)C(C#N)N(C)c2ccccc21 (stereo not drawn),> 100,> 100,> 100,> 100,> 100,> 100,> 100,64.9,> 100,> 100,> 100,> 100,> 100,> 100,> 100,> 100,–,> 100,–,–
N#Cc1sc2c(c1OC(=O)c1ccccc1)c(=O)n(-c1ccccc1)c(=S)n2-c1ccccc1,68.6,52.2,> 100,80.7,50,> 100,35.6,61.4,> 100,70.3,> 100,–,> 100,58.9,46.9,> 100,> 100,–,–,–
CN(C)c1ccc(NN=C2SC(=Nc3ccccc3)C(=Nc3ccccc3)S2)cc1,> 100,> 100,> 100,> 100,> 100,> 100,> 100,> 100,–,> 100,> 100,> 100,–,> 100,> 100,> 100,–,> 100,–,–
O=C(NNCC(O)COc1ccccc1)c1ccccc1 (stereo not drawn),> 100,–,> 100,> 100,> 100,> 100,> 100,> 100,> 100,> 100,> 100,> 100,> 100,> 100,> 100,> 100,–,> 100,–,–
COC(=O)[C@@H]1CC(C(C[N+](=O)[O-])c2ccc(O[Si](C)(C)C(C)(C)C)cc2)C(=O)N1C(=O)OC(C)(C)C (stereo partly drawn),> 100,> 100,> 100,> 100,> 100,> 100,> 100,> 100,> 100,> 100,> 100,> 100,> 100,–,> 100,> 100,–,> 100,> 100 µM and 46.2 µM,28.1 µM and > 100 µM
CCN1CCC(C)OP1(=O)Cc1ccccc1 (stereo not drawn),> 100,–,> 100,> 100,> 100,> 100,> 100,–,> 100,> 100,> 100,> 100,> 100,> 100,> 100,> 100,> 100,–,–,–
O=C(NC1=C(Cl)C(=O)c2ccccc2C1=O)c1ccc(F)cc1,78.9,64.7,18.3,20,3.73,2.51,–,> 100,–,13.8,–,4.85,12.3,13.7,4.93,> 100,14.7,–,–,–
